In ChEMBL document CHEMBL5303766, “Data for DCP probe FHT-2344” (2022) one finds delta Tm Staurosporine positive control and ΔTm data, which are given here for two molecules.

Common to all, as to conditions: for ΔTm: Compound concentration 10.0 uM
Assay [1] addresses Homeodomain-interacting protein kinase 2 (Homo sapiens) (UniProt Q9H2X6). In words: HIPK2 SGC Tm panel (DSF).
For assay [2], the target named is T1, Phosphorylase b kinase gamma catalytic chain, liver/testis isoform (Homo sapiens) (UniProt P15735).
T1 sequence (whole entry): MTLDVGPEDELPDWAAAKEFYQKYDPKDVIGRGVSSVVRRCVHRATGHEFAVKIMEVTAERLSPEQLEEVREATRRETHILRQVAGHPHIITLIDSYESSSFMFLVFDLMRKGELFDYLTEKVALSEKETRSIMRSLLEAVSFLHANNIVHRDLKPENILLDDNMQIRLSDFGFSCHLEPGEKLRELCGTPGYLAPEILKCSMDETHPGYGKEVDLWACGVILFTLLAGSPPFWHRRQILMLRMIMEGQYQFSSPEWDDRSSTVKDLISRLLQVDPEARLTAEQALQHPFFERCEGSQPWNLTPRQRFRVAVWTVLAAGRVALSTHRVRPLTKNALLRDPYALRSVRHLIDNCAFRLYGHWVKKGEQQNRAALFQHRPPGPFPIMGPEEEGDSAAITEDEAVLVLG
Description: PHKG2 SGC Tm panel (DSF).

In assay [3] the target is T2, Mitogen-activated protein kinase 13 (Homo sapiens) (UniProt O15264).
T2 sequence (whole entry): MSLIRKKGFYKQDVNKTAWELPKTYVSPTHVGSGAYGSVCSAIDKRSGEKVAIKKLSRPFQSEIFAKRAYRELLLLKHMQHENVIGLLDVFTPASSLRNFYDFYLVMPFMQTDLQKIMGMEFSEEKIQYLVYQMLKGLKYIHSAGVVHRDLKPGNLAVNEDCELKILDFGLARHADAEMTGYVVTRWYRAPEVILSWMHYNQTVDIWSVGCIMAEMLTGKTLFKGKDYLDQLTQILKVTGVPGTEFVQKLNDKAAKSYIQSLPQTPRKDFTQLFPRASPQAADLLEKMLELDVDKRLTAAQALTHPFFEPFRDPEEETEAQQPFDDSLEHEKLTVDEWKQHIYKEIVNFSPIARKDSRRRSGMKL
In words: MAPK13 SGC Tm panel (DSF).

The target in assay [4] is T3, Serine/threonine-protein kinase 3 (Homo sapiens) (UniProt Q13188).
T3 sequence (whole entry): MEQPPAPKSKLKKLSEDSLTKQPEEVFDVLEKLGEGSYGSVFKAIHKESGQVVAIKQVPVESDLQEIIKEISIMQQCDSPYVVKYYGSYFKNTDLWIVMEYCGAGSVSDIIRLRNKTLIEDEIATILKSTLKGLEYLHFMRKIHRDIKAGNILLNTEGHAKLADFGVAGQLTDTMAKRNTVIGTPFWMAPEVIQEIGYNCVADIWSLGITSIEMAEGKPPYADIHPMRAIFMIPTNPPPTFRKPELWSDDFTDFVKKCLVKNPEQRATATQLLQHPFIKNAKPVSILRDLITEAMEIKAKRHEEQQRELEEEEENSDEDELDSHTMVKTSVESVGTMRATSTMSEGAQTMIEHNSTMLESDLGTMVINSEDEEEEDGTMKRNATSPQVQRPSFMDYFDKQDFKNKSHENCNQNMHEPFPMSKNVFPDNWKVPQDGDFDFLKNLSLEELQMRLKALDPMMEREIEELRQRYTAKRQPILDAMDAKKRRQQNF
Description: STK3 SGC Tm panel (DSF).

The target in assay [5] is AP2-associated protein kinase 1 (Homo sapiens) (UniProt Q2M2I8). Description: AAK1 SGC Tm panel (DSF).
Chain of AP2-associated protein kinase 1 (Homo sapiens) (Q2M2I8 whole entry, looked up): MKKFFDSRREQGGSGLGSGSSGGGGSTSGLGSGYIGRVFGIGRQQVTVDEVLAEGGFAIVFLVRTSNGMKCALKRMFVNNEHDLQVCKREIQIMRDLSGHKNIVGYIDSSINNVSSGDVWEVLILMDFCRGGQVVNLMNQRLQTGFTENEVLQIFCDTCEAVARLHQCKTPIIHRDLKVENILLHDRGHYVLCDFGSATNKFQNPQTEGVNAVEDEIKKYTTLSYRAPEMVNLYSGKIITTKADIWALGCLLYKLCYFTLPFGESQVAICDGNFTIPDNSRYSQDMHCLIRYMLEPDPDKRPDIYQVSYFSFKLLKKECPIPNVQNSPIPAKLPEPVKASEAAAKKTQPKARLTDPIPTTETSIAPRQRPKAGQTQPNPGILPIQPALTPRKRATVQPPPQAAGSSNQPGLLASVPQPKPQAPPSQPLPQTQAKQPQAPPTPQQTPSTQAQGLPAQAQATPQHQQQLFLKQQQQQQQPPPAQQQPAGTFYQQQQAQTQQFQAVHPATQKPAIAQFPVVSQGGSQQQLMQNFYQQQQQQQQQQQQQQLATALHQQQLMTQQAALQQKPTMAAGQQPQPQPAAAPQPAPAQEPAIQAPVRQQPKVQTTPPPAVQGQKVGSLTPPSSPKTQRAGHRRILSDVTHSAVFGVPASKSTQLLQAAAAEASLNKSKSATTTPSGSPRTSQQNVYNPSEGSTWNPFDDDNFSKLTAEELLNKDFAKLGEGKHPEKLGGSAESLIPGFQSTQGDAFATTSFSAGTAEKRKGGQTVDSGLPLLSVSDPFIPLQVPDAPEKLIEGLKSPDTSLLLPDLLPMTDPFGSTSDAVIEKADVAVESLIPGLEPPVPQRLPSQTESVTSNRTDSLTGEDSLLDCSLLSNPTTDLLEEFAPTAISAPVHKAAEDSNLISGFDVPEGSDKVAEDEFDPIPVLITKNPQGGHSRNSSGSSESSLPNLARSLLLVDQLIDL
Assay [6] has as its target SRSF protein kinase 3 (Homo sapiens) (UniProt Q9UPE1). Description: MSSK1 SGC Tm panel (DSF).
The target of assay [7] is T4, Dual specificity mitogen-activated protein kinase kinase 4 (Homo sapiens) (UniProt P45985).
T4 sequence (whole entry): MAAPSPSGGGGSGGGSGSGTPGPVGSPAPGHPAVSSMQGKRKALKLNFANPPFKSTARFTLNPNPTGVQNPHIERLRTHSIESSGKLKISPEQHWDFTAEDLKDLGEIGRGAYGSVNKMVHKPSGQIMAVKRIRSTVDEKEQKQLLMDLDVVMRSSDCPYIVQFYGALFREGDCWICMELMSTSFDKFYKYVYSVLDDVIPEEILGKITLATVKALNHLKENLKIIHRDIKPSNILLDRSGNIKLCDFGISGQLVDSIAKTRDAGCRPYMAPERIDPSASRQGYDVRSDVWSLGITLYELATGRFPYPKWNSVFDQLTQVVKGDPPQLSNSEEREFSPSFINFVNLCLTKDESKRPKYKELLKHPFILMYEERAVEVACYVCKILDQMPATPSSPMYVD
Description: MAP2K4 SGC Tm panel (DSF).

Assay [8] has as its target T5, Ephrin type-B receptor 1 (Homo sapiens) (UniProt P54762).
T5 sequence (whole entry): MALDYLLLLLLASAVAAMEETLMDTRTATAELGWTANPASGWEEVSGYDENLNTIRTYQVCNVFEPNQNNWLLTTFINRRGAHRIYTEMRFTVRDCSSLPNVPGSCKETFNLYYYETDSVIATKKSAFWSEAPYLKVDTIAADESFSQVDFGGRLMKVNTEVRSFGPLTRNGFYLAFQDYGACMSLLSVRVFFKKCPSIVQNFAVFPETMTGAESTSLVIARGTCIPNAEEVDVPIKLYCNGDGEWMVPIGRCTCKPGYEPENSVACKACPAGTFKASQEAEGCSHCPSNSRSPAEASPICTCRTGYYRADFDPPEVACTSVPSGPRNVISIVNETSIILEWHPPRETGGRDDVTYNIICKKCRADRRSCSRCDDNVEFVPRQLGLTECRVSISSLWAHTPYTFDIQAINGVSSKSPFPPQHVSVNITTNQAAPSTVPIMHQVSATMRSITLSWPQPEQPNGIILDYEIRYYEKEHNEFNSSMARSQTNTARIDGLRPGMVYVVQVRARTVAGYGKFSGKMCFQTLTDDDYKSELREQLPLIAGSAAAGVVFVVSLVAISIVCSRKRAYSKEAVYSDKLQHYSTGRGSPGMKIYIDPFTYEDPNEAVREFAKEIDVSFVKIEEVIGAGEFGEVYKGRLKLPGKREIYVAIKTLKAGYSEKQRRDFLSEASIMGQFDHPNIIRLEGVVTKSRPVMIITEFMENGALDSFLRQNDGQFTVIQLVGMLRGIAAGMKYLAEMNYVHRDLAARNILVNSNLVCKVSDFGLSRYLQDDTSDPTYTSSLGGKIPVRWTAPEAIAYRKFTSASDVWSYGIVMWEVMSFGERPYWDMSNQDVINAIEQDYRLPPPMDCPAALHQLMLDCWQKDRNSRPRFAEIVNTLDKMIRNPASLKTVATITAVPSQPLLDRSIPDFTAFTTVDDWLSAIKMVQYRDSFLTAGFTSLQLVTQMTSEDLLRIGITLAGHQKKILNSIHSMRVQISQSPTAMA
Description: EPHB1 SGC Tm panel (DSF).

Chain of SRSF protein kinase 3 (Homo sapiens) (Q9UPE1 whole entry): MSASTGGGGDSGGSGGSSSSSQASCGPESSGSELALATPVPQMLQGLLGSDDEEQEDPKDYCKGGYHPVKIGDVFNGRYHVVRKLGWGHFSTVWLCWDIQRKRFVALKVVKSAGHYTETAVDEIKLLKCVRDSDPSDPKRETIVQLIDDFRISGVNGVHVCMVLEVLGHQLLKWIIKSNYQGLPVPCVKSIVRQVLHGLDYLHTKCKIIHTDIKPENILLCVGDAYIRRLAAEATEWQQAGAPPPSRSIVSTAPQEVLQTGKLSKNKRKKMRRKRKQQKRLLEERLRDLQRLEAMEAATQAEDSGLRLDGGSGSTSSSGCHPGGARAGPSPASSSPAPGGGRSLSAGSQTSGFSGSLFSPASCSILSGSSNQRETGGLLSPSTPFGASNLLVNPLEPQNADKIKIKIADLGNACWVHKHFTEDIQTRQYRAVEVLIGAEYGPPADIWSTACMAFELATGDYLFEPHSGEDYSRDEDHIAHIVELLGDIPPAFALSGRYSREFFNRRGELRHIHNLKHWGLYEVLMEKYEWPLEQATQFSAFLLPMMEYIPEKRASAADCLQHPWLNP
Chain of Homeodomain-interacting protein kinase 2 (Homo sapiens) (Q9H2X6 whole entry, looked up, canonical isoform): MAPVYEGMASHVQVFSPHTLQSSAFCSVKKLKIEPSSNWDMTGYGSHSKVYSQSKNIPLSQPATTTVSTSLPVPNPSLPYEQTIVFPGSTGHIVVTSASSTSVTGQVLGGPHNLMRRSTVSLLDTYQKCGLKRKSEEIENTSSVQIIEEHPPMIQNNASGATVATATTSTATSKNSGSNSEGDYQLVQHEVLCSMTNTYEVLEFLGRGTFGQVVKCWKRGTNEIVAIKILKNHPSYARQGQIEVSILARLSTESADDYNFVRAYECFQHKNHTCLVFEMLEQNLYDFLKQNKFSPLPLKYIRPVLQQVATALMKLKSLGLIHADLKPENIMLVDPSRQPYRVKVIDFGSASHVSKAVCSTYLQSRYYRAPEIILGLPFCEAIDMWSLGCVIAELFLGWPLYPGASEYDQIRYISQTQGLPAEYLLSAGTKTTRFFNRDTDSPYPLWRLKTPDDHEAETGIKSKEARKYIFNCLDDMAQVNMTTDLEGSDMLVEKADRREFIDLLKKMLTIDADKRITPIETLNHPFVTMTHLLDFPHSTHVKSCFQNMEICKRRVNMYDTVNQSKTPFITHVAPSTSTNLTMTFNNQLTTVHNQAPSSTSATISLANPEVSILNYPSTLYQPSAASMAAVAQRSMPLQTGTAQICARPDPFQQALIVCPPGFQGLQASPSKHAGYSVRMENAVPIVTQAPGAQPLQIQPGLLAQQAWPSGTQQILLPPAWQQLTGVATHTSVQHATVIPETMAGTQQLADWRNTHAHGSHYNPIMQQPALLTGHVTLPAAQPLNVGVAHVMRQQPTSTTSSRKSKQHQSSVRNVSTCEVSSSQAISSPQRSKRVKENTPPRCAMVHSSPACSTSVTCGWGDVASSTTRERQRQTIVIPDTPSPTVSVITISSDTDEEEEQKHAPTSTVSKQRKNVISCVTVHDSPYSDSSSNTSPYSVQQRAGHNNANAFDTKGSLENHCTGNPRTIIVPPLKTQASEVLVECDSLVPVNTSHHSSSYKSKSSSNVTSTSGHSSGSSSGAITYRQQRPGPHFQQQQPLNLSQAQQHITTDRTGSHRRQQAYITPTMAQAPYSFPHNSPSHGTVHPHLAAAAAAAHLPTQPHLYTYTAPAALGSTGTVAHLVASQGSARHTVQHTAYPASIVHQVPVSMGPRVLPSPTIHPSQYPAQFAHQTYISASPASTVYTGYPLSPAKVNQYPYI

For `C[C@H](NC(=O)c1cn(C2(C#N)CC2)cn1)C(=O)Nc1nc(-c2cccc(-c3ccn(C)n3)c2)cs1`, the delta Tm Staurosporine positive control in assay [1] was 6.38; in assay [2], 22.2; in assay [3], 6.96; in assay [4], 15.5; in assay [5] it was 11.6; in assay [6], 3.67. In addition, the values for the delta Tm Staurosporine positive control in assay [7] and in assay [8] were 10.8 and 6.19, respectively. The ΔTm in assay [1] is 0.207; in assay [2], 0.17; in assay [3], 0.161; in assay [4] it was 0.324; in assay [5], 0.0243; in assay [6], 0.0986. Besides, the ΔTm is 0.342 in assay [7] and 0.229 in assay [8].

`COC[C@H](NC(=O)c1ccn(S(C)(=O)=O)c1)C(=O)Nc1nc(-c2cccc(-c3ccn(C)n3)c2)cs1`: the delta Tm Staurosporine positive control in assay [1] came out at 6.38; in assay [2] it was 22.2; in assay [3], 6.96; in assay [4], 15.5; in assay [5], 11.6; in assay [6], 3.67. In addition, the delta Tm Staurosporine positive control in assay [7] was 10.8; in assay [8] it was 6.19. Also, the ΔTm in assay [1] was 0.234; in assay [2] it was 0.157; in assay [3] it was 0.221; in assay [4], 1.34; in assay [5] it was -0.00871; in assay [6], 0.376. The ΔTm in assay [7] was 0.427; in assay [8], -0.318.
